Tests used:
Experiment in all cases: KinomeScan profiling
Assay type in all cases: binding
Conditions in all cases: read-out: % control
[1] = target: T1, MYO3B (Homo sapiens, UniProt Q8WXR4)
T1 sequence (Q8WXR4 1-1341): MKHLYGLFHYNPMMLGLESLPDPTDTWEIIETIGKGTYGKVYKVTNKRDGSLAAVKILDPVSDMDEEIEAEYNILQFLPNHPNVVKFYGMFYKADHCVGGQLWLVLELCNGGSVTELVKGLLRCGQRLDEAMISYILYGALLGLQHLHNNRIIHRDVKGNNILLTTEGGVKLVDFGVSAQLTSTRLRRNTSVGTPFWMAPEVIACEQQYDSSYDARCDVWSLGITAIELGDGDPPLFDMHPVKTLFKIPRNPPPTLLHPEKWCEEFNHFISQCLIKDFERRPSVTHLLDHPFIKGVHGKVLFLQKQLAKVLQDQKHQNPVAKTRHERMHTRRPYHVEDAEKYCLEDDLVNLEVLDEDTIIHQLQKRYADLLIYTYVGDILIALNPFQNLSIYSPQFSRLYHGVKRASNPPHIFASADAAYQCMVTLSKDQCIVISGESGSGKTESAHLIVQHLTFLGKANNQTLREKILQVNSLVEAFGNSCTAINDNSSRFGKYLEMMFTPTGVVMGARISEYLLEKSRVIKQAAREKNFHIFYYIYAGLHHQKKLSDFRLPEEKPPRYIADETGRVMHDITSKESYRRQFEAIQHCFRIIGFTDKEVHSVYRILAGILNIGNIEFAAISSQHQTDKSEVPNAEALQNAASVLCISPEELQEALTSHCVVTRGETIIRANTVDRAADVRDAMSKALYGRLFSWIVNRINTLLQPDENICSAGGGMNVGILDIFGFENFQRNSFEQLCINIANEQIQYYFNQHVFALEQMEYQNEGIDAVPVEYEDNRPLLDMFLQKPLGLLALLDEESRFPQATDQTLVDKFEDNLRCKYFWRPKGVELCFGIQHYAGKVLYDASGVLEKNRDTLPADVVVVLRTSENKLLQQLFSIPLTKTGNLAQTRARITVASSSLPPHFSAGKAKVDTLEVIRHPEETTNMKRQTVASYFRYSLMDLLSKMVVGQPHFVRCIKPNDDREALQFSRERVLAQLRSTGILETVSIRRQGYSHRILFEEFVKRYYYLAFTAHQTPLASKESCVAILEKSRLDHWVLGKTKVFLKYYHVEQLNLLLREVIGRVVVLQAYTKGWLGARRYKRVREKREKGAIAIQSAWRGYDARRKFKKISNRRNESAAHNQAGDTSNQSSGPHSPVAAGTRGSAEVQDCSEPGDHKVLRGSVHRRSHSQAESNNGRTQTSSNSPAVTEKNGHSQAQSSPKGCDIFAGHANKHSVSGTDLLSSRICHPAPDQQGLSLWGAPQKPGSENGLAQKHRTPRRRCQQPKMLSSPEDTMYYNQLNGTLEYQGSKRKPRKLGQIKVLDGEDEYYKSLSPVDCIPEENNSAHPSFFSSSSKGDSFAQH
Procedure, shortened: (§1)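 Normalised RLU (% control; DMSO 100%, positive control 0%) was measured for compounds dosed at 1 μM over 468 kinases, active cut-off <35%.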

[2] = target: PIK3C2B (Homo sapiens, UniProt O00750)
Procedure, shortened: as §1

[3] = target: T2, ABL1(F317I)-nonphosphorylated (Homo sapiens, UniProt P00519, F317I)
T2 construct: purchased KinomeScan®
Procedure, shortened: as §1

[4] = target: T3, FLT3-autoinhibited (Homo sapiens, UniProt P36888)
T3 sequence (P36888 564-993 limits assumed): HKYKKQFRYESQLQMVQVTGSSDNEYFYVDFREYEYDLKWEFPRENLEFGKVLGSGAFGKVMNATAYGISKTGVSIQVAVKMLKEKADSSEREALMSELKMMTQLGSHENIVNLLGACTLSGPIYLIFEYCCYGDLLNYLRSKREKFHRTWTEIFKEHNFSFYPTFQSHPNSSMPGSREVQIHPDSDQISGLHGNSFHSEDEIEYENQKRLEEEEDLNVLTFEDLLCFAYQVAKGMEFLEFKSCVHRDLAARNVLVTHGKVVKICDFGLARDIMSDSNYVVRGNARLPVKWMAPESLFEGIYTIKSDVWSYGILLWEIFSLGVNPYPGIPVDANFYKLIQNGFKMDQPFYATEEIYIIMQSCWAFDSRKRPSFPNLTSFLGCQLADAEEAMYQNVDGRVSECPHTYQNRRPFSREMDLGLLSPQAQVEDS
Procedure, shortened: as §1

Chain of PIK3C2B (O00750 whole entry): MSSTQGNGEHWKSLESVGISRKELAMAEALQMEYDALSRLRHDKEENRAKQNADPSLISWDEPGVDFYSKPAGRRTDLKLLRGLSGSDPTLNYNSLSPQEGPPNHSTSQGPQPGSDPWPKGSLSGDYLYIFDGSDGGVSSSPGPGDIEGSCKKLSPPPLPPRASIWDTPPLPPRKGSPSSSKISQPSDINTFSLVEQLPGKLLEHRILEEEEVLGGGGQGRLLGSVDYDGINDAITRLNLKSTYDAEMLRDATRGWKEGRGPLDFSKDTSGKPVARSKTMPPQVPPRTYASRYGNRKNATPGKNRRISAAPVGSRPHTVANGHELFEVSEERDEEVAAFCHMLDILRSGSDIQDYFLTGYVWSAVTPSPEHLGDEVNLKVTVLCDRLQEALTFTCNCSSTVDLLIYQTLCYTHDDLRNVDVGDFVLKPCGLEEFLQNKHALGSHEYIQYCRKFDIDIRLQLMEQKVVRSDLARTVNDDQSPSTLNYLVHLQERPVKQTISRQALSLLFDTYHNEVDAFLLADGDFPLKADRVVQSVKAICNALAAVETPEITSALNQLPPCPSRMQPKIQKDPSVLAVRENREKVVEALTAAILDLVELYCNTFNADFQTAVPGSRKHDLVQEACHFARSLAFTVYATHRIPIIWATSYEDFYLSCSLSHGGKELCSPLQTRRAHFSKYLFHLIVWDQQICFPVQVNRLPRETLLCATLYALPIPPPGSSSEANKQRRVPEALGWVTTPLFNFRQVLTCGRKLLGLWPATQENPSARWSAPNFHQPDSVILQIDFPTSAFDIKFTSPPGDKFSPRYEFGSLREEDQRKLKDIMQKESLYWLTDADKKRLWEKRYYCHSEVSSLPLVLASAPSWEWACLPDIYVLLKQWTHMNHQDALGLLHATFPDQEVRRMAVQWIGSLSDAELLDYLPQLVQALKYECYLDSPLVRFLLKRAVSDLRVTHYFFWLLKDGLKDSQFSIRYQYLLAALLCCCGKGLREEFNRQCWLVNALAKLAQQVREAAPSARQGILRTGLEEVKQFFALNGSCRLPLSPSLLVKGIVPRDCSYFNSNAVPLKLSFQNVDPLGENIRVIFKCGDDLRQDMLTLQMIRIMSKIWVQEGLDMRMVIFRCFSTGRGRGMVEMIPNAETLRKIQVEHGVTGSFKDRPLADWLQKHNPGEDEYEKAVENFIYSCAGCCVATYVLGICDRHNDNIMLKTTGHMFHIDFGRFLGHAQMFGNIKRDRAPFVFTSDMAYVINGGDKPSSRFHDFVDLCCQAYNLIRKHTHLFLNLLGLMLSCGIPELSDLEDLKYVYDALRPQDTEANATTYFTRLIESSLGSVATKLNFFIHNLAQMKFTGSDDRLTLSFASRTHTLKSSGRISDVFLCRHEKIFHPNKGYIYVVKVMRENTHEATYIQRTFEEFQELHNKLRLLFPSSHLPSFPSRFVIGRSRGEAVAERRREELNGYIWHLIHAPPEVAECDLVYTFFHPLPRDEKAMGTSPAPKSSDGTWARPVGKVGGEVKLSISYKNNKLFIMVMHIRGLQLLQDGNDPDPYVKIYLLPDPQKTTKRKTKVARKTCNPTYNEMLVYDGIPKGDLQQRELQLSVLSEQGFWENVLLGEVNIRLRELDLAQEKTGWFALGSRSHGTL
T2 sequence (P00519 whole entry F317I): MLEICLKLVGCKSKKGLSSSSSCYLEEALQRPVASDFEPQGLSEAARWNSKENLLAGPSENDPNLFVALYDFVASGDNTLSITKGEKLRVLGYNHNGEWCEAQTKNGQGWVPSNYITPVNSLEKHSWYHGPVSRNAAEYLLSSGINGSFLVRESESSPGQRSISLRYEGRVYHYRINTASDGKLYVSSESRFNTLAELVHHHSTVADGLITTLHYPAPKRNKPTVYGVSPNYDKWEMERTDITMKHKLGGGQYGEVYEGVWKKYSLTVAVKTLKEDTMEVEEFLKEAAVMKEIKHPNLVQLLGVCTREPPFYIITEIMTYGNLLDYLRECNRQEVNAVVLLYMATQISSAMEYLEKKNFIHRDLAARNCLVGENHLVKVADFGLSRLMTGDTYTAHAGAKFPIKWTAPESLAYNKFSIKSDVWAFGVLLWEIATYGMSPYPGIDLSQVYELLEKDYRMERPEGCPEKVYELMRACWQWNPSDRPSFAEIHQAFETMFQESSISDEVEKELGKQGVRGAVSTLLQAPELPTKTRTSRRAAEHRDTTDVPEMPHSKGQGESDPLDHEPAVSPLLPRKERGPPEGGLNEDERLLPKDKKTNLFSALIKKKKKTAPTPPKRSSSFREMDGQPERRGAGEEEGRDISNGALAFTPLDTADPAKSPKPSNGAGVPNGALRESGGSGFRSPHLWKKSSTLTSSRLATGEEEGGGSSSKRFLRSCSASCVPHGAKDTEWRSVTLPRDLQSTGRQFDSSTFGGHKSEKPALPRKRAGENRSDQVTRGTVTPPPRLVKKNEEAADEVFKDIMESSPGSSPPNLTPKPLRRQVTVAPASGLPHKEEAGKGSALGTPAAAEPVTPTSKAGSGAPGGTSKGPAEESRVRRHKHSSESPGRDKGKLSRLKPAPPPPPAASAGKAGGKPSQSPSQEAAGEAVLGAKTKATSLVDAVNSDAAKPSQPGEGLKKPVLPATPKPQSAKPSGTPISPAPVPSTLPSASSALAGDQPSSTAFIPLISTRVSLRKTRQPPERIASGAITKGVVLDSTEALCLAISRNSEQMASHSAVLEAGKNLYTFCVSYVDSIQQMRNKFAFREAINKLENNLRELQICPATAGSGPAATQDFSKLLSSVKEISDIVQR

| Compound | remaining binding at 1 µM [1] [%] | remaining binding at 1 µM [2] [%] | remaining binding at 1 µM [3] [%] | remaining binding at 1 µM [4] [%] |
| --- | --- | --- | --- | --- |
| CNc1c(-c2cnn([C@H]3CCN(C(C)=O)C[C@@H]3F)c2)cnc2[nH]cc(Cl)c12 [Compound 77, 1-((3S,4S)-4-(4-(3-chloro-4-(methylamino)-1H-pyrrolo[2,3-b]pyridin-5-yl)-1H-pyrazol-1-yl)-3-fluoropiperidin-1-yl)ethan-1-one] | 96 | 100 | 100 | 53 |
| CNc1c(-c2ccc(C(=O)N3CCC(N4CCOCC4)CC3)cc2)cnc2[nH]cc(Cl)c12 [Compound 96, (4-(3-chloro-4-(methylamino)-1H-pyrrolo[2,3-b]pyridin-5-yl)phenyl)(4-morpholinopiperidin-1-yl)methanone] | 73 | 96 | 100 | 93 |
| O=C(c1ccc(-c2cnc3[nH]cc(Cl)c3c2NC2CCCC2)cc1)N1CCC(N2CCOCC2)CC1 [Compound 101, (4-(3-chloro-4-(cyclopentylamino)-1H-pyrrolo[2,3-b]pyridin-5-yl)phenyl)(4-morpholinopiperidin-1-yl)methanone] | 93 | 96 | 100 | 62 |
